Literature values in patent publication US20230067378A1, “COMPOSITIONS AND METHODS FOR THE TREATMENT OF ESTROGEN-DEPENDENT DISORDERS” (ObsEva S.A., priority 2018, published 2023).

Details: in vivo; cited from earlier work

**Q.** With `CONC(=O)Nc1ccc(-c2sc3c(c2CN(C)C)c(=O)n(-c2ccc(OC)nn2)c(=O)n3Cc2c(F)cccc2F)cc1` [relugolix, N-(4-(1-(2,6-difluorobenzyl)-5-((dimethylamino)methyl)-3-(6-methoxy-3-pyridazinyl)-2,4-dioxo-1,2,3,4-tetrahydrothieno[2,3-d]pyrimidin-6-yl)phenyl)-N′-methoxyurea] as the compound, how does the half-life read?
**A.** Its half-life is 37 to 42 h.

**Q.** With `COc1cccc(-c2c(C)n(Cc3c(F)cccc3C(F)(F)F)c(=O)n(C[C@H](NCCCC(=O)O)c3ccccc3)c2=O)c1F` [Elagolix, sodium 4-({(1R)-2-[5-(2-fluoro-3-methoxyphenyl)-3-{[2-fluoro-6-(trifluoromethyl)phenyl]methyl}-4-methyl-2,6-dioxo-3,6-dihydropyrimidin-1(2H)-yl]-1-phenylethyl}amino)butanoate] as the compound, how does the half-life read?
**A.** The half-life was 2 to 6 h.
